Results published in ChEMBL document CHEMBL4673200, “Hydride-induced Meisenheimer complex formation reflects activity of nitro aromatic anti-tuberculosis compounds” (RSC Med Chem, 2021).
Converted amounts (≈) assume the structure as drawn. The source made the active and inactive calls. The rule behind the calls is not given here.

Key:
[1] = system: Mycobacterium tuberculosis; assay: Antitubercular activity against Mycobacterium tuberculosis H37Rv ATCC 27294 cultured in 7H12 media assessed as reduction in bacterial growth incubated for 7 days by resazurin dye fluorescence based assay; assay type: functional; settings: H37Rv ATCC 27294, 168 h, time 7 day
Vero = assay: Cytotoxicity against African green monkey Vero cells assessed by reduction in cell viability incubated for 72 hrs by resazurin dye fluorescence based assay; settings: Chlorocebus sabaeus
[2] = system: Mycobacterium tuberculosis; assay: Antitubercular activity against Mycobacterium tuberculosis H37Rv ATCC 27294 cultured in GAS media assessed as reduction in bacterial growth incubated for 7 days by resazurin dye fluorescence based assay; assay type: functional; settings: H37Rv ATCC 27294, 168 h, time 7 day
Mycolicibacterium aurum = assay: Antitubercular activity against Mycobacterium aurum assessed as reduction in bacterial growth incubated for 42 hrs by broth microdilution assay; assay type: functional
Mycolicibacterium vaccae = assay: Antitubercular activity against Mycobacterium vaccae assessed as reduction in bacterial growth incubated for 42 hrs by broth microdilution assay; assay type: functional
[3] = biological target: T1, Decaprenylphosphoryl-beta-D-ribose oxidase (Mycobacterium tuberculosis (strain ATCC 25618 / H37Rv)) (UniProt P9WJF1); assay: Inhibition of Mycobacterium tuberculosis H37Rv DprE1 at 100 times of MIC incubated for 24 hrs by [14C]-acetate radioligand based thin layer chromatography
T1 sequence (whole entry): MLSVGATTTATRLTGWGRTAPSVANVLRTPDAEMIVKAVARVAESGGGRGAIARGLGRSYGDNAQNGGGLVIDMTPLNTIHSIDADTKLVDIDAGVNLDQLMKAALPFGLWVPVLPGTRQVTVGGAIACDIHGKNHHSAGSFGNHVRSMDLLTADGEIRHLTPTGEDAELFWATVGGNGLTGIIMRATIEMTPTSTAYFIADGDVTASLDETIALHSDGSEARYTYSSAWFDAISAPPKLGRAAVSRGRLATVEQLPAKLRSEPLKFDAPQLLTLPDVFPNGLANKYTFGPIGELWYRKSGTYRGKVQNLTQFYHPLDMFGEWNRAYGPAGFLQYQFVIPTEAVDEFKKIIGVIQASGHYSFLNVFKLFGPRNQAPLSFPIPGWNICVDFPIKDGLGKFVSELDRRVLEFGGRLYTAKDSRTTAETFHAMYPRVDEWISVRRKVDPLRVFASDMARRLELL

[4] = biological target: T1, Decaprenylphosphoryl-beta-D-ribose oxidase (Mycobacterium tuberculosis (strain ATCC 25618 / H37Rv)); assay: Inhibition of reactivation of Mycobacterium tuberculosis H37Rv DprE1 at 100 times of MIC incubated for 24 hrs by [14C]-acetate radioligand based thin layer chromatography

`C[C@H]1COC2(CCN(c3ccc([N+](=O)[O-])cc3C#N)CC2)O1` was tested, and the MIC [1] was 2.4 µM (≈ 0.728 µg/mL), the IC50 (Vero) was > 100 µM and the MIC [2] was 2 µM (≈ 0.607 µg/mL).

`N#Cc1cc([N+](=O)[O-])ccc1Oc1ccc(Cl)c(Cl)c1` was tested, and the MIC [1] was > 50 µM, the IC50 (Vero) was > 50 µM and the MIC [2] was 45 µM (≈ 13.9 µg/mL).

With `O=[N+]([O-])c1cn2c(n1)OC[C@@H](OCc1ccc(OC(F)(F)F)cc1)C2` [PRETOMANID] the MIC [1] was 0.08 µM (≈ 0.0287 µg/mL), the IC50 (Vero) was > 100 µM and the MIC [2] was 0.2 µM (≈ 0.0719 µg/mL).

`O=C(NCc1ccc(N2CCC(c3ccc(OC(F)(F)F)cc3)CC2)cc1)c1sc2c([N+](=O)[O-])cc(C(F)(F)F)cc2[n+]1[O-]` was tested, and the MIC [1] was 0.025 µM (≈ 0.016 µg/mL), the IC50 (Vero) was 81 µM and the MIC (Mycolicibacterium aurum) was > 1 µM. It also gave an MIC (Mycolicibacterium vaccae) of 20 nM (≈ 0.0128 µg/mL) and an MIC [2] of 0.07 µM (≈ 0.0448 µg/mL).

In the case of `N#Cc1cc([N+](=O)[O-])ccc1NCc1cccc(F)c1`, the MIC [1] is reported as > 5 µM, the IC50 (Vero) is reported as > 100 µM and the MIC [2] is reported as 5 µM (≈ 1.36 µg/mL).

In the case of `O=C(NCc1ccc(N2CCC(c3ccc(OC(F)(F)F)cc3)CC2)cc1)c1nc2cc(C(F)(F)F)cc([N+](=O)[O-])c2s1`, the MIC [1] is reported as 0.24 µM (≈ 0.15 µg/mL), the IC50 (Vero) is reported as > 100 µM and the inhibition [3] is reported as “Active”. For the same molecule, the MIC (Mycolicibacterium aurum) was > 1 µM, the MIC (Mycolicibacterium vaccae) was 125 nM (≈ 0.0781 µg/mL) and the inhibition [4] was “inactive”. It also gave an MIC [2] of 0.13 µM (≈ 0.0812 µg/mL).

With `N#Cc1cc([N+](=O)[O-])ccc1Nc1ccc(OC2CCNCC2)cc1` the MIC [1] was > 5 µM, the IC50 (Vero) was > 100 µM and the MIC [2] was > 5 µM.

`N#Cc1cc([N+](=O)[O-])ccc1NC1CC1` was tested, and the MIC [1] was > 5 µM, the IC50 (Vero) was > 100 µM and the MIC [2] was > 5 µM.

With `CCOC(=O)c1sc2c([N+](=O)[O-])cc(C(F)(F)F)cc2[n+]1[O-]` the MIC [1] was > 5 µM and the MIC [2] was 4.97 µM (≈ 1.67 µg/mL).

For `O=C(NCc1ccc2c(c1)CCO2)c1sc2c([N+](=O)[O-])cc(C(F)(F)F)cc2[n+]1[O-]`, the MIC [1] was 0.01 µM (≈ 0.00439 µg/mL), the IC50 (Vero) was > 100 µM and the MIC (Mycolicibacterium aurum) was > 1 µM. The MIC (Mycolicibacterium vaccae) was < 1 nM and the MIC [2] was < 0.002 µM.

With `CCc1nc2ccc(Cl)cn2c1C(=O)NCc1ccc(N2CCC(c3ccc(OC(F)(F)F)cc3)CC2)cc1` [TELACEBEC] the MIC [1] was 0.03 µM (≈ 0.0167 µg/mL), the IC50 (Vero) was > 100 µM and the MIC (Mycolicibacterium aurum) was > 1 µM. For the same molecule, the MIC (Mycolicibacterium vaccae) was 4 nM (≈ 0.00223 µg/mL) and the MIC [2] was 0.007 µM (≈ 0.0039 µg/mL).

With `N#Cc1cc([N+](=O)[O-])ccc1N1CCN(c2ccc(C(F)(F)F)cc2)CC1` the MIC [1] was > 5 µM, the IC50 (Vero) was > 100 µM and the MIC [2] was 5 µM (≈ 1.88 µg/mL).

`N#Cc1cc([N+](=O)[O-])ccc1-n1cnc2c(N)ncnc21` was tested, and the MIC [1] was > 5 µM, the IC50 (Vero) was > 100 µM and the MIC [2] was > 5 µM.

`C[C@H]1COC2(CCN(C(=O)c3sc4c([N+](=O)[O-])cc(C(F)(F)F)cc4[n+]3[O-])CC2)O1` was tested, and the MIC [1] was 0.23 µM (≈ 0.103 µg/mL), the IC50 (Vero) was 79.6 µM and the inhibition [3] was “Active”. For the same molecule, the MIC (Mycolicibacterium aurum) was > 1 µM, the MIC (Mycolicibacterium vaccae) was 15 nM (≈ 0.00671 µg/mL) and the MIC [2] was 0.24 µM (≈ 0.107 µg/mL).

In the case of `COc1ccc(CNC(=O)c2sc3c([N+](=O)[O-])cc(C(F)(F)F)cc3[n+]2[O-])cc1`, the MIC [1] is reported as 0.01 µM (≈ 0.00427 µg/mL), the IC50 (Vero) is reported as 76 µM and the MIC (Mycolicibacterium aurum) is reported as > 1 µM. For the same molecule, the MIC (Mycolicibacterium vaccae) was < 1 nM and the MIC [2] was 0.01 µM (≈ 0.00427 µg/mL).

With `COc1ccc(CNC(=O)c2nc3cc(C(F)(F)F)cc([N+](=O)[O-])c3s2)cc1` the MIC [1] was 0.7 µM (≈ 0.288 µg/mL), the IC50 (Vero) was > 100 µM and the inhibition [3] was “Active”. The MIC (Mycolicibacterium aurum) was > 1 µM, the MIC (Mycolicibacterium vaccae) was 8 nM (≈ 0.00329 µg/mL) and the inhibition [4] was “inactive”. The MIC [2] was 0.14 µM (≈ 0.0576 µg/mL).

In the case of `CC(Nc1ccc([N+](=O)[O-])cc1C#N)c1ccc(Cl)cc1` (stereo not given), the MIC [1] is reported as > 5 µM, the IC50 (Vero) is reported as 29 µM and the MIC [2] is reported as 5 µM (≈ 1.51 µg/mL).

Molecule `NC(=O)c1sc2c([N+](=O)[O-])cc(C(F)(F)F)cc2[n+]1[O-]` [CYCLAPOLIN 9] has an MIC [1] of 1.2 µM (≈ 0.369 µg/mL) and an MIC [2] of 2.19 µM (≈ 0.673 µg/mL).

With `COc1ccc(CNc2ccc([N+](=O)[O-])cc2C#N)cc1` the MIC [1] was > 5 µM, the IC50 (Vero) was > 100 µM and the MIC [2] was > 5 µM.

`C[C@H]1COC2(CCN(c3nc(=O)c4cc(C(F)(F)F)cc([N+](=O)[O-])c4s3)CC2)O1` [BTZ-043] was tested, and the MIC [1] was < 0.004 µM, the IC50 (Vero) was > 100 µM and the inhibition [3] was “Active”. The MIC (Mycolicibacterium aurum) was > 1 µM, the MIC (Mycolicibacterium vaccae) was < 1 nM and the MIC [2] was < 0.004 µM.

With `N#Cc1cc([N+](=O)[O-])ccc1N1CCC(Cc2ccccc2)CC1` the MIC [1] was > 5 µM, the IC50 (Vero) was > 100 µM and the MIC [2] was 2 µM (≈ 0.643 µg/mL).

In the case of `O=c1nc(N2CCN(CC3CCCCC3)CC2)sc2c([N+](=O)[O-])cc(C(F)(F)F)cc12`, the inhibition [3] is reported as “Active”.

For `CC(C)(C)OC(=O)N1CCC(Oc2ccc(Nc3ccc([N+](=O)[O-])cc3C#N)cc2)CC1`, the MIC [1] was > 5 µM, the IC50 (Vero) was > 100 µM and the MIC [2] was 3 µM (≈ 1.32 µg/mL).

In the case of `N#Cc1cc([N+](=O)[O-])ccc1NCc1ccccn1`, the MIC [1] is reported as > 5 µM, the IC50 (Vero) is reported as > 100 µM and the MIC [2] is reported as > 5 µM.
